Measured values as given in PubChem BioAssay (NCI).
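Test compounds were applied to cells in 96-well plates for 48 hours at 5 doses. GI50: concentration for 50% inhibition of growth. At the TGI there is no net growth.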

Columns and labels:
Experiment in all cases: growth of human tumour cells (NCI), 48 h
A549 NSCLC = tested on: A549 NSCLC
OVCAR-3 ovarian = tested on: OVCAR-3 ovarian
UACC-62 melanoma = tested on: UACC-62 melanoma
LOX IMVI melanoma = tested on: LOX IMVI melanoma
SNB-75 CNS = tested on: SNB-75 CNS
SF-295 CNS = tested on: SF-295 CNS
K-562 leukemia = tested on: K-562 leukemia
UO-31 renal = tested on: UO-31 renal
NCI-H522 lung = tested on: NCI-H522 lung
ACHN renal = tested on: ACHN renal
OVCAR-8 ovarian = tested on: OVCAR-8 ovarian
IGROV1 ovarian = tested on: IGROV1 ovarian
CAKI-1 renal = tested on: CAKI-1 renal
NCI/ADR-RES ovarian = tested on: NCI/ADR-RES ovarian
UACC-257 melanoma = tested on: UACC-257 melanoma
SN12C renal = tested on: SN12C renal
T-47D breast = tested on: T-47D breast
786-0 renal = tested on: 786-0 renal
OVCAR-5 ovarian = tested on: OVCAR-5 ovarian
CCRF-CEM leukemia = tested on: CCRF-CEM leukemia
HCC-2998 colon = tested on: HCC-2998 colon
SK-MEL-28 melanoma = tested on: SK-MEL-28 melanoma
HCT-116 colon = tested on: HCT-116 colon
SF-539 CNS = tested on: SF-539 CNS
MDA-MB-231 breast = tested on: MDA-MB-231 breast
SW-620 colon = tested on: SW-620 colon
HL-60(TB) leukemia = tested on: HL-60(TB) leukemia
A498 renal = tested on: A498 renal
NCI-H460 lung = tested on: NCI-H460 lung
M14 melanoma = tested on: M14 melanoma
MOLT-4 leukemia = tested on: MOLT-4 leukemia
NCI-H226 lung = tested on: NCI-H226 lung
EKVX NSCLC = tested on: EKVX NSCLC
SK-MEL-5 melanoma = tested on: SK-MEL-5 melanoma
NCI-H23 lung = tested on: NCI-H23 lung
PC-3 prostate = tested on: PC-3 prostate
BT-549 breast = tested on: BT-549 breast
HCT-15 colon = tested on: HCT-15 colon
SK-OV-3 ovarian = tested on: SK-OV-3 ovarian
SR leukemia = tested on: SR leukemia
HOP-62 NSCLC = tested on: HOP-62 NSCLC
MALME-3M melanoma = tested on: MALME-3M melanoma
HT29 colon = tested on: HT29 colon
MCF7 breast = tested on: MCF7 breast
SF-268 CNS = tested on: SF-268 CNS
TK-10 renal = tested on: TK-10 renal
COLO 205 colon = tested on: COLO 205 colon
RXF 393 renal = tested on: RXF 393 renal
U251 CNS = tested on: U251 CNS
SK-MEL-2 melanoma = tested on: SK-MEL-2 melanoma
RPMI-8226 leukemia = tested on: RPMI-8226 leukemia
OVCAR-4 ovarian = tested on: OVCAR-4 ovarian
DU-145 prostate = tested on: DU-145 prostate
MDA-MB-468 breast = tested on: MDA-MB-468 breast
SNB-19 CNS = tested on: SNB-19 CNS
MDA-MB-435 = tested on: MDA-MB-435
HOP-92 NSCLC = tested on: HOP-92 NSCLC
KM12 colon = tested on: KM12 colon

How did the GI50 (A549 NSCLC) turn out when `CC(C)N=C([Se])NC(=O)c1ccccc1` was run?
Its GI50 is 3.11 µM.

What about the TGI (A549 NSCLC) of the same compound?
The TGI was 34.8 µM.

What about the GI50 (OVCAR-3 ovarian) of the same compound?
The GI50 was 1.97 µM.

What about the TGI (OVCAR-3 ovarian) of the same compound?
Its TGI is 3.57 µM.

And the GI50 (UACC-62 melanoma)?
Its GI50 is 1.96 µM.

And the TGI (UACC-62 melanoma)?
Its TGI is 4.07 µM.

What about the GI50 (LOX IMVI melanoma) of the same compound?
Its GI50 is 1.85 µM.

And the TGI (LOX IMVI melanoma)?
The TGI was 3.94 µM.

And the GI50 (SNB-75 CNS)?
Its GI50 is 1.69 µM.

And the TGI (SNB-75 CNS)?
The TGI was 3.41 µM.

What about the GI50 (SF-295 CNS) of the same compound?
Its GI50 is 1.86 µM.

And the TGI (SF-295 CNS)?
Its TGI is 5.21 µM.

And the GI50 (K-562 leukemia)?
The GI50 was 2.76 µM.

What about the TGI (K-562 leukemia) of the same compound?
The TGI was 8.45 µM.

What about the GI50 (UO-31 renal) of the same compound?
The GI50 was 1.64 µM.

What about the TGI (UO-31 renal) of the same compound?
Its TGI is 3 µM.

And the GI50 (NCI-H522 lung)?
The GI50 was 1.64 µM.

And the TGI (NCI-H522 lung)?
The TGI was 3.17 µM.

And the GI50 (ACHN renal)?
The GI50 was 1.92 µM.

What about the TGI (ACHN renal) of the same compound?
The TGI was 3.41 µM.

And the GI50 (OVCAR-8 ovarian)?
Its GI50 is 1.88 µM.

What about the TGI (OVCAR-8 ovarian) of the same compound?
The TGI was 3.56 µM.

What about the GI50 (IGROV1 ovarian) of the same compound?
Its GI50 is 1.76 µM.

What about the TGI (IGROV1 ovarian) of the same compound?
Its TGI is 3.49 µM.

What about the GI50 (CAKI-1 renal) of the same compound?
Its GI50 is 1.67 µM.

What about the TGI (CAKI-1 renal) of the same compound?
The TGI was 3.04 µM.

And the GI50 (NCI/ADR-RES ovarian)?
The GI50 was 2.12 µM.

And the TGI (NCI/ADR-RES ovarian)?
The TGI was 4.89 µM.

And the GI50 (UACC-257 melanoma)?
Its GI50 is 1.92 µM.

What about the TGI (UACC-257 melanoma) of the same compound?
Its TGI is 4.06 µM.

And the GI50 (SN12C renal)?
The GI50 was 1.82 µM.

What about the TGI (SN12C renal) of the same compound?
Its TGI is 3.29 µM.

What about the GI50 (T-47D breast) of the same compound?
The GI50 was 1.98 µM.

What about the TGI (T-47D breast) of the same compound?
The TGI was 4.52 µM.

What about the GI50 (786-0 renal) of the same compound?
Its GI50 is 1.8 µM.

And the TGI (786-0 renal)?
The TGI was 3.25 µM.

What about the GI50 (OVCAR-5 ovarian) of the same compound?
Its GI50 is 1.97 µM.

And the TGI (OVCAR-5 ovarian)?
The TGI was 3.72 µM.

And the GI50 (CCRF-CEM leukemia)?
The GI50 was 3.05 µM.

And the TGI (CCRF-CEM leukemia)?
Its TGI is 10.8 µM.

And the GI50 (HCC-2998 colon)?
Its GI50 is 1.92 µM.

And the TGI (HCC-2998 colon)?
Its TGI is 3.67 µM.

And the GI50 (SK-MEL-28 melanoma)?
The GI50 was 1.94 µM.

What about the TGI (SK-MEL-28 melanoma) of the same compound?
Its TGI is 3.62 µM.

And the GI50 (HCT-116 colon)?
The GI50 was 1.88 µM.

What about the TGI (HCT-116 colon) of the same compound?
The TGI was 3.49 µM.

And the GI50 (SF-539 CNS)?
Its GI50 is 1.8 µM.

What about the TGI (SF-539 CNS) of the same compound?
The TGI was 3.21 µM.

And the GI50 (MDA-MB-231 breast)?
The GI50 was 2.67 µM.

And the TGI (MDA-MB-231 breast)?
The TGI was 6.49 µM.

What about the GI50 (SW-620 colon) of the same compound?
The GI50 was 2.06 µM.

What about the TGI (SW-620 colon) of the same compound?
Its TGI is 4.63 µM.

What about the GI50 (HL-60(TB) leukemia) of the same compound?
The GI50 was 2.07 µM.

And the TGI (HL-60(TB) leukemia)?
The TGI was 5.37 µM.

What about the GI50 (A498 renal) of the same compound?
The GI50 was 2.85 µM.

What about the TGI (A498 renal) of the same compound?
Its TGI is 8.02 µM.

And the GI50 (NCI-H460 lung)?
The GI50 was 2.93 µM.

What about the TGI (NCI-H460 lung) of the same compound?
Its TGI is 11.6 µM.

And the GI50 (M14 melanoma)?
Its GI50 is 1.84 µM.

What about the TGI (M14 melanoma) of the same compound?
Its TGI is 3.65 µM.

And the GI50 (MOLT-4 leukemia)?
The GI50 was 2.33 µM.

What about the TGI (MOLT-4 leukemia) of the same compound?
Its TGI is 6.07 µM.

And the GI50 (NCI-H226 lung)?
The GI50 was 2.11 µM.

What about the TGI (NCI-H226 lung) of the same compound?
Its TGI is 5.94 µM.

And the GI50 (EKVX NSCLC)?
The GI50 was 1.77 µM.

And the TGI (EKVX NSCLC)?
The TGI was 3.32 µM.

What about the GI50 (SK-MEL-5 melanoma) of the same compound?
The GI50 was 1.88 µM.

And the TGI (SK-MEL-5 melanoma)?
The TGI was 3.67 µM.

And the GI50 (NCI-H23 lung)?
Its GI50 is 1.93 µM.

And the TGI (NCI-H23 lung)?
The TGI was 4.13 µM.

And the GI50 (PC-3 prostate)?
Its GI50 is 2.01 µM.

And the TGI (PC-3 prostate)?
The TGI was 4.37 µM.

And the GI50 (BT-549 breast)?
Its GI50 is 1.61 µM.

What about the TGI (BT-549 breast) of the same compound?
The TGI was 3.55 µM.

And the GI50 (HCT-15 colon)?
The GI50 was 1.85 µM.

What about the TGI (HCT-15 colon) of the same compound?
The TGI was 3.63 µM.

What about the GI50 (SK-OV-3 ovarian) of the same compound?
The GI50 was 0.426 µM.

What about the TGI (SK-OV-3 ovarian) of the same compound?
The TGI was 1.3 µM.

What about the GI50 (SR leukemia) of the same compound?
Its GI50 is 2.06 µM.

And the TGI (SR leukemia)?
Its TGI is 5.23 µM.

And the GI50 (HOP-62 NSCLC)?
The GI50 was 2.03 µM.

And the TGI (HOP-62 NSCLC)?
The TGI was 5.19 µM.

What about the GI50 (MALME-3M melanoma) of the same compound?
The GI50 was 1.63 µM.

What about the TGI (MALME-3M melanoma) of the same compound?
The TGI was 3.09 µM.

And the GI50 (HT29 colon)?
The GI50 was 2.34 µM.

What about the TGI (HT29 colon) of the same compound?
The TGI was 5.99 µM.

What about the GI50 (MCF7 breast) of the same compound?
The GI50 was 1.7 µM.

And the TGI (MCF7 breast)?
Its TGI is 3.66 µM.

And the GI50 (SF-268 CNS)?
Its GI50 is 2.9 µM.

And the TGI (SF-268 CNS)?
The TGI was 8.27 µM.

And the GI50 (TK-10 renal)?
The GI50 was 1.7 µM.

What about the TGI (TK-10 renal) of the same compound?
Its TGI is 3.17 µM.

What about the GI50 (COLO 205 colon) of the same compound?
The GI50 was 2.49 µM.

What about the TGI (COLO 205 colon) of the same compound?
The TGI was 6.46 µM.

What about the GI50 (RXF 393 renal) of the same compound?
The GI50 was 1.88 µM.

And the TGI (RXF 393 renal)?
The TGI was 3.68 µM.

And the GI50 (U251 CNS)?
The GI50 was 1.86 µM.

What about the TGI (U251 CNS) of the same compound?
Its TGI is 3.51 µM.

And the GI50 (SK-MEL-2 melanoma)?
Its GI50 is 2.08 µM.

And the TGI (SK-MEL-2 melanoma)?
Its TGI is 4.88 µM.

And the GI50 (RPMI-8226 leukemia)?
The GI50 was 2.64 µM.

And the TGI (RPMI-8226 leukemia)?
The TGI was 7.83 µM.

What about the GI50 (OVCAR-4 ovarian) of the same compound?
The GI50 was 1.75 µM.

What about the TGI (OVCAR-4 ovarian) of the same compound?
Its TGI is 3.14 µM.

And the GI50 (DU-145 prostate)?
Its GI50 is 1.95 µM.

What about the TGI (DU-145 prostate) of the same compound?
The TGI was 3.6 µM.

And the GI50 (MDA-MB-468 breast)?
Its GI50 is 1.72 µM.

What about the TGI (MDA-MB-468 breast) of the same compound?
The TGI was 3.61 µM.

What about the GI50 (SNB-19 CNS) of the same compound?
The GI50 was 2.91 µM.

What about the TGI (SNB-19 CNS) of the same compound?
The TGI was 10.8 µM.

And the GI50 (MDA-MB-435)?
The GI50 was 2.69 µM.

What about the TGI (MDA-MB-435) of the same compound?
The TGI was 8.5 µM.

And the GI50 (HOP-92 NSCLC)?
Its GI50 is 1.95 µM.

What about the TGI (HOP-92 NSCLC) of the same compound?
Its TGI is 4.36 µM.

And the GI50 (KM12 colon)?
The GI50 was 3 µM.

What about the TGI (KM12 colon) of the same compound?
Its TGI is 8.39 µM.
